Data: PMC5811991 (Biochemistry, 2008)

Target: GDP-perosamine synthase (Caulobacter vibrioides, UniProt Q9A9H3)
Assay: HPLC assay of substrate decrease
Assay type: biochemical
Details: substrate inhibition, competitive versus glutamate (ping-pong, Eq. 1); 100 μM PLP, 20 mM HEPES pH 7.5, 110 mM NaCl, 10 mM MgCl2, room temperature

GDP-perosamine synthase, sequence (Q9A9H3 whole entry): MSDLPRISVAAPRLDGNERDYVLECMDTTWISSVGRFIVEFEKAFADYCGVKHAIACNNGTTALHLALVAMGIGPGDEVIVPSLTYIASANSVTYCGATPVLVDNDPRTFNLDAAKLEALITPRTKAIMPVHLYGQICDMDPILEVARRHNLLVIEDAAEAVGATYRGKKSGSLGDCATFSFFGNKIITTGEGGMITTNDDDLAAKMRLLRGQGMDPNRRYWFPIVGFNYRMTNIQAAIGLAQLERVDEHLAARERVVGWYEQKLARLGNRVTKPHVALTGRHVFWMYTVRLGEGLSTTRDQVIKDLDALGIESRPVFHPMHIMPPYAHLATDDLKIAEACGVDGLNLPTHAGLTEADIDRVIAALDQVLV

Ki sugar: 89 ± 34 µM
Compound: C[C@H]1O[C@H](OP(=O)(O)OP(=O)(O)OC[C@H]2O[C@@H](n3cnc4c(=O)[nH]c(N)nc43)[C@H](O)[C@@H]2O)[C@@H](O)[C@@H](O)C1=O [GDP-4-keto-6-deoxymannose]
